A word on the EC50: it is the concentration needed to bring the measured effect to its halfway point. As a reminder, the IC50 is the concentration that inhibits the measured activity by half.

“Also recorded” adds a separate entry of the source. Like-named read-outs stand apart in the source and are kept apart here.

The values that follow come from patent US20230263808A1 (UNIVERSITY OF FLORIDA RESEARCH FOUNDATION, INCORPORATED, priority 2020, published 2023).

Assay [1] has as its target T1, glucocorticoid receptor (GR) (Homo sapiens, UniProt P04150).
T1 construct: expressed in transfected cells; host or cells: 293T
T1 sequence (P04150 1-777): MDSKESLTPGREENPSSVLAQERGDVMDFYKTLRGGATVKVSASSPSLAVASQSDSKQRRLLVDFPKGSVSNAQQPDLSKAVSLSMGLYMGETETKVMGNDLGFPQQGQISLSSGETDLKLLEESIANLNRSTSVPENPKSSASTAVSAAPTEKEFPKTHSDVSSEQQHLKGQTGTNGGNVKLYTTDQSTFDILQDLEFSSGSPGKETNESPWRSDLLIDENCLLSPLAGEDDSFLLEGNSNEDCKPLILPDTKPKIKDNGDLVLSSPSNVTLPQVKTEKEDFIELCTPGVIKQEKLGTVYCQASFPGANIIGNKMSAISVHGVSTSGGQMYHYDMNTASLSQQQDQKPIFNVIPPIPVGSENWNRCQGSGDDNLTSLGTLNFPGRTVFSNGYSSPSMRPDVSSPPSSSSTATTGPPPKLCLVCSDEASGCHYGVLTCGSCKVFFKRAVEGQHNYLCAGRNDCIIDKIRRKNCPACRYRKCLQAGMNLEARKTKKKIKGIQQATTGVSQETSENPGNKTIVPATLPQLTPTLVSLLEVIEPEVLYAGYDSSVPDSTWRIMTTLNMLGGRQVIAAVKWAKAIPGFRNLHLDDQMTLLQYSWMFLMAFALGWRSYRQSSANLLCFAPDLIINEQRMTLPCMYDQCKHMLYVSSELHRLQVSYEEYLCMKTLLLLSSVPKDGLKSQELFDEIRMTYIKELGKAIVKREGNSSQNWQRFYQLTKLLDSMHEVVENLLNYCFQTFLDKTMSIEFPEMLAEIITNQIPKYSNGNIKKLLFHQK
The assay can be described thus: GR-driven (MMTV) luciferase reporter assay, agonist and antagonist mode. It is filed as cell-based. The protocol:
For native gene expression, C2C12 myotubes were treated compounds for 24 h. For MMTV-Luc assay, steroid-deprived 293T cells were co-transfected with a GR expression plasmid and an MMTV-driven luciferase reporter plasmid. The next day, cells were treated with compounds for 24 hrs. Each point represents the average of triplicate biological measurements for a separate compound. B) AR Luc assay development. Steroid-deprived 293T cells were transfected with AR expression plasmid and an ARR3-tk-driven luciferase reporter. The next day cells were treated with increasing doses of the indicated compounds. Data shown are mean+SD of triplicate measurements. C) AR-Luc assay identified 5 GCs with some AR activity.
A) The effects of all tested compounds on IL-1β-induced IL-6 production (x-axes) versus GR interaction with the indicated peptides. B-C) The effects of all tested compounds on the indicated GC-regulated phenotypes (x-axes) versus GR interaction with the CHD9_1023 and CENPR_1 peptides (y-axes). D-F) COC plots. Each point represents the Pearson correlation coefficient, r, between a distinct gene expression or GR-peptide interaction assay with assays indicated on the x and y axes. G) The effects of all tested compounds on IL-1β-induced IL-6 production (y-axes) versus insulin-induced protein synthesis. […] IL-β-induced IL-6 production by A549 cells treated with the indicated compounds was compared by AlphaLISA. […] Mice in panel K were subjected to a lactate-tolerance test (LTT).
For inclusion in the statistical analyses, assays were required to show high reproducibility, with a Pearson correlation >0.8 between different experiments (FIG. 2, H; FIG. 9, A). […] We also analyzed the effects of the compounds on expression of Fkbp5, Pdk4, and Klf15 mRNAs in C2C12 myotubes, and MMTV-luciferase and androgen receptor (AR) driven-luciferase activity in 293T cells. Fkbp5 and Pdk4 are among the most highly expressed GR target genes, while Klf15 is a known GR target gene that inhibits protein synthesis and stimulates expression of genes that facilitate protein degradation (Shimizu et al., Cell Metabol. 13, 170-182, 2011). We also analyzed the effects of compounds on nuclear translocation of GR using a quantitative HTS approach (Htun et al., Proc. Natl. Acad. Sci. USA 93, 4845-4850, 1996). To visualize the variance of the compounds, we expressed the data as Z score for each assay, in units of standard deviation (FIG. 9, A). […] We used an AR-luciferase assay to test for androgenic activity (FIG. 9, B). From this we identified a handful compounds with AR activity >5% (FIG. 9, C).

Assay [2] deals with IL-1β-induced IL-6 secretion by A549 lung cells. The assay can be described thus: IL-1β-induced IL-6 secretion by A549 lung cells (AlphaLISA). It is filed as cell-based. The following applies: 10 μM. The source says:
A) Correlation of correlation (COC) plots where each point represents the Pearson correlation coefficient, r, between a distinct gene expression or GR-peptide interaction assay with assays indicated on the x and y axes. B) The effects of all tested compounds on IL-1β-induced secretion of IL-6 (y axes) and GC-regulated phenotypes indicated on the x axes. C) The effects of all tested compounds on IL-1β-induced secretion of IL-6 (y axis) and bone mineralization (x axis). D) IL-1β-induced IL-6 production by A549 cells treated with 10 μM of the indicated compounds was compared by AlphaLISA. E-H) Myoblasts were assayed as described in FIG. 8. I) Representative myoblasts imaged during the mitochondrial potential assay. J) Plasma TNFα levels of C57BL/6 male mice treated pretreated with the indicated ligands. K) Changes in lean mass of mice in panel J were determined by whole-body NMR after an additional 18 h LPS treatment. Data shown are mean+SEM.
In order to understand whether effects on skeletal muscle could be dissociated from anti-inflammatory effects of the ligands, we profiled the compounds for suppression of IL1β-induced IL-6 secretion by A549 lung cells. Examining the correlations between assays can be used to identify dissociated assays that selectively correlate with a given phenotype, predicting discovery of dissociated ligands. […] We call this a correlation of correlations (COC) plot. […] These include recruitment of NCOA2 and NCOA3 peptides, coactivators that we and others have shown to be required for GC-dependent suppression of inflammation in different cell types (FIG. 11, A). However, for the mitochondrial assay and IL-6, there are dissociated assays shown by points that are far out from the regression line in the COC plot (FIG. 7, A). For example, interaction of CHD9 with GR predicted mitochondrial activity but not Glut4 translocation (FIG. 11, B), while interaction with the CENPR peptide selectively predicted effects on Glut4 translocation (FIG. 11, C). […] Assays that correlated with effects of the ligands on GR nuclear translocation were also highly correlated with Glut4 translocation and suppression of IL-6 secretion (FIG. 11, F). Therefore, the COC curves provide a way to identify common signaling mechanisms between different GR target tissues and signaling pathways.
(In Alpha technology, singlet oxygen from a donor bead excites a nearby acceptor bead.)

Turning to `C=CCOC1CC2(C)C(CCC2(O)C#CC)C2CCc3cc(C(=O)Nc4cccnc4C)ccc3C12` (centres unmarked) [SR11466], in assay [1], the “modulator profile (agonist/antagonist)” value was “partial agonist”. The EC50 in assay [1] (read-out: EC50 in a luciferase reporter assay) worked out at 0.1 nM. The IC50 in assay [1] (read-out: IC50 for GR-driven luciferase activity) worked out at 0.24 nM. The “inhibition of IL-1β-induced IL-6 secretion (anti-inflammatory)” value (“inhibition” below) in assay [2] is reported as “as efficiently as Dex; also recorded: fully inhibiting IL-6 secretion; also recorded: efficacious; also recorded: inhibited IL-6 secretion as efficiently as dexamethasone”.
`CC#CC1(O)CCC2C3CCc4cc(C(=O)Nc5cnccc5C)ccc4C3C(O)CC21C` (centres unmarked) [SR15421]: the EC50 in assay [1] (assay not given, read-out: EC50) is 240 nM. For the same molecule, in assay [2], the “inhibition” value is on record as “anti-inflammatory”.
For the molecule `CC#CC1(O)CCC2C3CCc4cc(C(=O)Nc5cccnc5C)ccc4C3C(OCc3ccccc3Cl)CC21C` (centres unmarked) [SR16024], the “modulator profile (agonist/antagonist)” value in assay [1] is reported as “full antagonist”. For the same molecule, the IC50 in assay [1] (read-out: IC50 for displacing 10 nM Dex, antagonist mode, 10 nM Dex) amounted to 1 nM; in assay [1] (read-out: IC50 in the reporter assay) it was 1.5 nM. Also, the “inhibition” value in assay [2] is recorded as “partially inhibited; also recorded: weakly anti-inflammatory”.
Consider `CC#CC1(O)CCC2C3CCc4cc(C(=O)Nc5cccnc5C)ccc4C3C(OCc3ccc(Cl)cc3)CC21C` (centres unmarked) [SR16025], for which, in assay [2], the “inhibition” value is recorded as “weakly anti-inflammatory”.
